Test results reported in patent publication US9133204B2, “5-membered heterocyclic amides and related compounds” (H. Lundbeck A/S, priority 2007, dated 2015).

molecular target: T1, P2X7 receptor (Homo sapiens, UniProt Q99572); test: High throughput P2X7 calcium mobilization assay (Example 4A); assay type: cell-based; settings: SH-SY5Y cells; 50% decrease in fluorescence response of cells exposed to 80 μM BzATP; Table I
T1 construct: host or cells: SH-SY5Y
T1 sequence (Q99572 1-595): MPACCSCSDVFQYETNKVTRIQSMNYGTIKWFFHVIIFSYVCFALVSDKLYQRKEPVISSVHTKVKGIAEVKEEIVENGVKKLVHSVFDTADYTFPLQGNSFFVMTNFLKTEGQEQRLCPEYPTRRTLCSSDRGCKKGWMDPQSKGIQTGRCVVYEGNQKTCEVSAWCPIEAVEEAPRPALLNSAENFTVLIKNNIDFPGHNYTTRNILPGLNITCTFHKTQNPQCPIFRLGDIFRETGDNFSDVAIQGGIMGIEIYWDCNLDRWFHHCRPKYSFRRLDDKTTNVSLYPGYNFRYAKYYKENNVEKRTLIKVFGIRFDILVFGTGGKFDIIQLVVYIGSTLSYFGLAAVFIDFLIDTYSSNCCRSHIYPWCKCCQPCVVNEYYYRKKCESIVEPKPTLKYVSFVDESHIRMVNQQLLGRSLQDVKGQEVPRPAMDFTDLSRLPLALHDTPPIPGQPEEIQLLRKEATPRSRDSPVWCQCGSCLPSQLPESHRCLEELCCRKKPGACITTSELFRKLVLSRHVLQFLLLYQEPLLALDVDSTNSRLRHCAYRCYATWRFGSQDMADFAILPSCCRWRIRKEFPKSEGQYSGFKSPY
Method in brief: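 SH-SY5Y cells loaded with 2.3 μM Fluo-4 AM for 1 h at 37 °C, then preincubated 1 h at room temperature with test compound (final 1–2500 nM) in low-sodium sucrose buffer, pH 7.4. Antagonism measured against 80 μM BzATP (about EC50) as peak FLIPR calcium fluorescence over 2 min, corrected by no-agonist background.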

IC50, ≤ 2 µM:
Nc1cnc(-n2cc(C(=O)NCC34CC5CC(CC(C5)C3)C4)c(C(F)(F)F)n2)cn1 [Compound 148, N-(adamantan-1-ylmethyl)-1-(5-aminopyrazin-2-yl)-3-(trifluoromethyl)-1H-pyrazole-4-carboxamide]
CC(CNC(=O)c1cn(-c2ncc(F)c(N)n2)nc1C(F)(F)F)c1ccc(Cl)cc1 (stereo not drawn) [Compound 149, 1-(4-amino-5-fluoropyrimidin-2-yl)-N-[2-(4-chlorophenyl)propyl]-3-(trifluoromethyl)-1H-pyrazole-4-carboxamide]
CCCC(CNC(=O)c1cn(-c2ncc(F)c(N)n2)nc1C(F)(F)F)c1ccc(Cl)cc1 (stereo not drawn) [Compound 150, 1-(4-amino-5-fluoropyrimidin-2-yl)-N-[2-(4-chlorophenyl)pentyl]-3-(trifluoromethyl)-1H-pyrazole-4-carboxamide]
O=C(NCC1(c2cccnc2)CCCCC1)c1cn(-c2ncccn2)nc1C(F)(F)F [Compound 151, N-[(1-pyridin-3-ylcyclohexyl)methyl]-1-pyrimidin-2-yl-3-(trifluoromethyl)-1H-pyrazole-4-carboxamide]
O=C(NCC1(c2cccnc2)CCCCC1)c1cn(-c2ncc(F)cn2)nc1C(F)(F)F [Compound 152, 1-(5-fluoropyrimidin-2-yl)-N-[(1-pyridin-3-ylcyclohexyl)methyl]-3-(trifluoromethyl)-1H-pyrazole-4-carboxamide]
O=C(NCC12CC3CC(CC(C3)C1)C2)c1cn(-c2cc(=O)[nH]cn2)nc1C(F)(F)F [Compound 153, N-(adamantan-1-ylmethyl)-1-(6-oxo-1,6-dihydropyrimidin-4-yl)-3-(trifluoromethyl)-1H-pyrazole-4-carboxamide]
Nc1nc(-n2cc(C(=O)NCC3(O)CCCCCC3)c(C(F)(F)F)n2)ncc1F [Compound 154, 1-(4-amino-5-fluoropyrimidin-2-yl)-N-[(1-hydroxycycloheptyl)methyl]-3-(trifluoromethyl)-1H-pyrazole-4-carboxamide]
Nc1ccnc(-n2cc(C(=O)NCC3(c4cccnc4)CCCCC3)c(C(F)(F)F)n2)n1 [Compound 155, 1-(4-aminopyrimidin-2-yl)-N-[(1-pyridin-3-ylcyclohexyl)methyl]-3-(trifluoromethyl)-1H-pyrazole-4-carboxamide]
Cc1cnc(-n2cc(C(=O)NCC3(c4cccnc4)CCCCC3)c(C(F)(F)F)n2)nc1N [Compound 156, 1-(4-amino-5-methylpyrimidin-2-yl)-N-[(1-pyridin-3-ylcyclohexyl)methyl]-3-(trifluoromethyl)-1H-pyrazole-4-carboxamide]
Nc1nccnc1-n1cc(C(=O)NCC2(c3cccnc3)CCCCC2)c(C(F)(F)F)n1 [Compound 157, 1-(3-aminopyrazin-2-yl)-N-[(1-pyridin-3-ylcyclohexyl)methyl]-3-(trifluoromethyl)-1H-pyrazole-4-carboxamide]
Cc1ccc(C2(CNC(=O)c3sc(-c4ncccn4)nc3C(F)(F)F)CCCCC2)cn1 [Compound 158, N-{[1-(6-methylpyridin-3-yl)cyclohexyl]methyl}-2-pyrimidin-2-yl-4-(trifluoromethyl)-1,3-thiazole-5-carboxamide]
O=C(NCC1(N2CCOCC2)CCCCC1)c1sc(-c2ncccn2)nc1C(F)(F)F [Compound 159, N-[(1-morpholin-4-ylcyclohexyl)methyl]-2-pyrimidin-2-yl-4-(trifluoromethyl)-1,3-thiazole-5-carboxamide]
CCCC(CNC(=O)c1sc(-c2ncccn2)nc1C(F)(F)F)c1ccc(Cl)cc1 (stereo not drawn) [Compound 160, N-[2-(4-chlorophenyl)pentyl]-2-pyrimidin-2-yl-4-(trifluoromethyl)-1,3-thiazole-5-carboxamide]
O=C(NCC1(c2cccnc2)CCCCC1)c1sc(-c2ncccn2)nc1C(F)(F)F [Compound 161, N-[(1-pyridin-3-ylcyclohexyl)methyl]-2-pyrimidin-2-yl-4-(trifluoromethyl)-1,3-thiazole-5-carboxamide]
N[C@@H]1CCN(C2(CNC(=O)c3sc(-c4ncccn4)nc3C(F)(F)F)CCCCC2)C1 [Compound 162, N-({1-[(3R)-3-aminopyrrolidin-1-yl]cyclohexyl}methyl)-2-pyrimidin-2-yl-4-(trifluoromethyl)-1,3-thiazole-5-carboxamide]
CC(C)CC(CNC(=O)c1sc(N2CC[C@@H](N(C)C)C2)nc1C(F)(F)F)c1ccc(C(F)(F)F)cc1 (stereo partly drawn) [Compound 163, 2-[(3R)-3-(dimethylamino)pyrrolidin-1-yl]-N-{4-methyl-2-[4-(trifluoromethyl)phenyl]pentyl}-4-(trifluoromethyl)-1,3-thiazole-5-carboxamide]
O=C(NCC1(c2cccnc2)CCCCC1)c1sc(-c2cccnc2)nc1C(F)(F)F [Compound 164, 2-pyridin-3-yl-N-[(1-pyridin-3-ylcyclohexyl)methyl]-4-(trifluoromethyl)-1,3-thiazole-5-carboxamide]
CC(C)CC(CNC(=O)c1sc(-c2cccnc2)nc1C(F)(F)F)c1ccc(C(F)(F)F)cc1 (stereo not drawn) [Compound 165, N-{4-methyl-2-[4-(trifluoromethyl)phenyl]pentyl}-2-pyridin-3-yl-4-(trifluoromethyl)-1,3-thiazole-5-carboxamide]
CCc1nc(-c2cccnc2)sc1C(=O)NCC1(c2cccnc2)CCCCC1 [Compound 166, 4-ethyl-2-pyridin-3-yl-N-[(1-pyridin-3-ylcyclohexyl)methyl]-1,3-thiazole-5-carboxamide]
Nc1nc(-n2cc(C(=O)NCC3(c4ccc(Cl)cc4)CCC3)c(C(F)(F)F)n2)ncc1F [Compound 167, 1-(4-amino-5-fluoropyrimidin-2-yl)-N-{[1-(4-chlorophenyl)cyclobutyl]methyl}-3-(trifluoromethyl)-1H-pyrazole-4-carboxamide]
COc1ccc(C2(CNC(=O)c3cn(-c4ncc(F)c(N)n4)nc3C(F)(F)F)CCCCC2)cc1 [Compound 168, 1-(4-amino-5-fluoropyrimidin-2-yl)-N-{[1-(4-methoxyphenyl)cyclohexyl]methyl}-3-(trifluoromethyl)-1H-pyrazole-4-carboxamide]
Nc1nc(-n2cc(C(=O)NCC(O)C34CC5CC(CC(C5)C3)C4)c(C(F)(F)F)n2)ncc1F (stereo not drawn) [Compound 169, N-(2-adamantan-1-yl-2-hydroxyethyl)-1-(4-amino-5-fluoropyrimidin-2-yl)-3-(trifluoromethyl)-1H-pyrazole-4-carboxamide]
Cc1cnc(-n2cc(C(=O)NCC3(c4ccc(C(F)(F)F)cc4)CCCCC3)c(C)n2)nc1N [Compound 170, 1-(4-amino-5-methylpyrimidin-2-yl)-3-methyl-N-({1-[4-(trifluoromethyl)phenyl]cyclohexyl}methyl)-1H-pyrazole-4-carboxamide]
Cc1cnc(-n2cc(C(=O)NCC(CC(C)C)c3ccc(C(F)(F)F)cc3)c(C(F)(F)F)n2)nc1N (stereo not drawn) [Compound 171, 1-(4-amino-5-methylpyrimidin-2-yl)-N-{4-methyl-2-[4-(trifluoromethyl)phenyl]pentyl}-3-(trifluoromethyl)-1H-pyrazole-4-carboxamide]
